Data published in patent publication US8343983B2, “Substituted pyrazolo-pyrimidine compounds” (ArQule, Inc., priority 2009, dated 2013).
Read-outs that look alike come from different tables or passages of the source.

Experiments:
[1] = test system: cancer cells; test: MTS assay: inhibition of cell growth (formazan absorbance at 492 nm after 72 hours with test compound); assay type: cell-based; settings: inhibition class
Procedure, shortened: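 DMEM with 1% FBS; cells seeded at 3000/well and grown 18 h at 37 °C, then exposed to compound for 72 h and to MTS/PMS for 4 h. IC50 is the concentration giving a 50% absorbance drop; grades are % inhibition bands.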

[2] = Homo sapiens, DLD-1 cells, read-out: DLD-1, MTS 72 hours at 10 uM
[3] = Homo sapiens, KATO III cells, read-out: KATO III, MTS 72 hours at 10 uM
[4] = Homo sapiens, MDA-MB-231 cells, read-out: MDA-MB-231, MTS 72 hours at 10 uM
[5] = Homo sapiens, NCI-H1299 cells, read-out: NCI-H1299, MTS 72 hours at 10 uM
[6] = Homo sapiens, PC-3 cells, read-out: PC-3, MTS 72 hours at 10 uM
[7] = PACA-2 cells, read-out: PACA-2, MTS 72 hours at 10 uM

| Compound | melting point [°C] | inhibition at 10 µM [1, 2] [%] | inhibition at 10 µM [1, 3] [%] | inhibition at 10 µM [1, 4] [%] | inhibition at 10 µM [1, 5] [%] | inhibition at 10 µM [1, 6] [%] | inhibition at 10 µM [1, 7] [%] |
| --- | --- | --- | --- | --- | --- | --- | --- |
| COc1ccc(CN2CCc3nn(Cc4ccccc4)c4nc(N5CCOCC5)nc2c34)cc1 [Compound 131, 4-(1-benzyl-5-(4-methoxybenzyl)-1,3,4,5-tetrahydro-1,2,5,6,8-pentaazaacenaphthylen-7-yl)morpholine] | 118 to 120 | – | – | – | – | – | – |
| O=C(c1ccco1)N1CCN(c2nc3c4c(n[nH]c4n2)CCN3Cc2ccccc2)CC1 [Compound 53, 6-benzyl-4-[4-(2-furoyl)piperazin-1-yl]-2,6,7,8-tetrahydro-1,2,3,5,6-pentaazaacenaphthylene] | – | < 50 | < 50 | 50 to 79 | < 50 | < 50 | < 50 |
| c1ccc(CN2CCc3n[nH]c4nc(NCCOc5ccccc5)nc2c34)cc1 [Compound 34, 6-benzyl-N-(2-phenoxyethyl)-2,6,7,8-tetrahydro-1,2,3,5,6-pentaazaacenaphthylen-4-amine] | – | < 50 | < 50 | 50 to 79 | < 50 | < 50 | 50 to 79 |
| C1Cc2n[nH]c3nc(N4CCOCC4)nc(c23)N1 [Compound 125, 4-morpholin-4-yl-2,6,7,8-tetrahydro-1,2,3,5,6-pentaazaacenaphthylene] | – | < 50 | < 50 | < 50 | < 50 | < 50 | < 50 |
| c1ccc(CN2CCc3n[nH]c4nc(N5CCN(Cc6cccnc6)CC5)nc2c34)cc1 [Compound 88, 6-benzyl-4-[4-(pyridin-3-ylmethyl)piperazin-1-yl]-2,6,7,8-tetrahydro-1,2,3,5,6-pentaazaacenaphthylene] | – | < 50 | > 79 | > 79 | < 50 | > 79 | < 50 |
| Cn1c(CNc2nc3c4c(n[nH]c4n2)CCN3Cc2ccccc2)nc2ccccc21 [Compound 21, 6-benzyl-N-[(1-methyl-1H-benzimidazol-2-yl)methyl]-2,6,7,8-tetrahydro-1,2,3,5,6-pentaazaacenaphthylen-4-amine] | – | < 50 | 50 to 79 | < 50 | < 50 | < 50 | < 50 |
| O=C(NCC1CCCCC1)C1CN(Cc2ccccc2)c2nc(NCc3ccccc3)nc3[nH]nc1c23 (stereo not shown) [Compound 240, 6-benzyl-4-(benzylamino)-N-(cyclohexylmethyl)-2,6,7,8-tetrahydro-1,2,3,5,6-pentaazaacenaphthylene-8-carboxamide] | – | > 79 | > 79 | < 50 | > 79 | > 79 | < 50 |
| Cc1ccccc1CNC(=O)C1CN(Cc2ccccc2)c2nc(NCc3ccccc3)nc3[nH]nc1c23 (stereo not shown) [Compound 233, 6-benzyl-4-(benzylamino)-N-(2-methylbenzyl)-2,6,7,8-tetrahydro-1,2,3,5,6-pentaazaacenaphthylene-8-carboxamide] | – | > 79 | 50 to 79 | > 79 | > 79 | > 79 | < 50 |
| COc1cc(CCNc2nc3c4c(n[nH]c4n2)CCN3Cc2ccccc2)cc(OC)c1 [Compound 11, 6-benzyl-N-[2-(3,5-dimethoxyphenyl)ethyl]-2,6,7,8-tetrahydro-1,2,3,5,6-pentaazaacenaphthylen-4-amine] | – | 50 to 79 | > 79 | < 50 | > 79 | < 50 | 50 to 79 |
| c1ccc(N2CCc3n[nH]c4nc(NC5CCCCC5)nc2c34)cc1 [Compound 211, N-cyclohexyl-6-phenyl-2,6,7,8-tetrahydro-1,2,3,5,6-pentaazaacenaphthylen-4-amine] | – | < 50 | < 50 | < 50 | < 50 | < 50 | < 50 |
| COc1ccc(CN2CCc3n[nH]c4nc(NCCN5CCOCC5)nc2c34)cc1 [Compound 105, 6-(4-methoxybenzyl)-N-(2-morpholin-4-ylethyl)-2,6,7,8-tetrahydro-1,2,3,5,6-pentaazaacenaphthylen-4-amine] | – | > 79 | > 79 | > 79 | > 79 | > 79 | > 79 |
| Clc1ccc(CCNc2nc3c4c(n[nH]c4n2)CCN3Cc2ccccc2)cc1Cl [Compound 70, 6-benzyl-N-[2-(3,4-dichlorophenyl)ethyl]-2,6,7,8-tetrahydro-1,2,3,5,6-pentaazaacenaphthylen-4-amine] | – | > 79 | > 79 | > 79 | > 79 | < 50 | > 79 |
